Source: patent publication US5147876A, “2,6-di,2,4,6-, 2,5,6-tri and 2,4,5,6-tetra-substituted pyrimidines, their pharmaceutically acceptable salts, pharmaceutical compositions containing same and their use in the treatment of neurological diseases” (Mitsui Petrochemical Industries, Ltd., priority 1988, dated 1992)

Key:
[1] = test system: neuro-2a (mouse neuroblastoma cells); experiment: Action on neuro-2a: proportion of cells containing outgrown neurites; format: cell-based; details: mean ± S.D.
Summary of the method: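 Mouse neuro-2a cells at 1,000 cells/well in DMEM with 10% FCS were cultured one day at 37 °C, 5% CO2, then glutaraldehyde-fixed and methylene-blue-stained. The proportion of cells bearing a neurite at least twice the cell's long diameter was counted over >200 cells; up to 6 concentrations, triplicate runs.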

[2] = test system: NS-20Y (mouse neuroblastoma cells); experiment: Activity on NS-20Y cells: appearance of neurites; format: cell-based
Method: The effects of the compounds of this invention on neuroblastoma cells were examined by the following method.
Mouse neuro 2a cells in the logarithmic growth period in the Dulbecco's modified Eagle's medium DMEM, containing 100 units/ml of penicillin G sodium and 100 micrograms/ml of streptomycin sulfate]containing 10 % of FCS were seeded in a 48-well plate so that the number of cells was 1,000 cells/well, and cultured for one day in 0.25 ml of the culture fluid in each well in an incubator containing 5 % of carbon dioxide gas in air at 37° C. Then, a 4 % aqueous glutaraldehyde solution in the same amount as a medium (0.25 ml) was added, and the culture fluid was left to stand at room temperature for 2 hours to fix the cells. After washing with water, a 0.05 % aqueous solution of methylene blue was added to stain the cells Under a microscope, the number of cells containing outgrown neurites (cells having at least one neurite with a length of at least two times as large as the long diameter of the cell) was counted visually, and the proportion of these cells in the entire cells was calculated. The well was observed over 5 or more visual fields (at least 2 % of the entire surface area of the well) continuous to the left and right from a mark put at the center of the well, and more than 200 cells was counted. One drug compound was used in 6 different concentrations at most, and three runs were conducted for each concentrations.
Mouse neuroblastoma cells NS-20Y were similarly cultured in a dish coated with polyornithine, and the effects of the compounds were examined.

Acute toxicity on mice = format: in vivo; details: mouse, in vivo, ip, 24 hours after administration; read-out: Estimated LD50
Method: The acute toxicity of the compounds of the invention was examined by the following method.
Male ddy-strain 5-week old mice, 4-6- per group, were used as experimental animals. Each of the compounds was intraperitoneally (i.p.), and the toxicity of the compound was assessed 24 hours after the administration.

## CN(C(=O)c1ccccc1)c1nccc(N2CCC(c3ccccc3)CC2)n1 [Compound 628]
[1]; 0.03 mM
  Number of cells having neurites with a length at least two times the diameter of each cell/total number of cells: 10.2 ± 1.3%
[1]; 0.1 mM
  Number of cells having neurites with a length at least two times the diameter of each cell/total number of cells: 13.4 ± 3.2%
[1]; 0.3 mM
  Number of cells having neurites with a length at least two times the diameter of each cell/total number of cells: 12.6 ± 3.2%
[1]; 1 mM
  Number of cells having neurites with a length at least two times the diameter of each cell/total number of cells: 10.0 ± 3.9%
[2]; 24 hours, 0.1 mM
  Number of cells in which neurites appeared/total number of cells: 9/50
[2]; 48 hours, 0.1 mM
  Number of cells in which neurites appeared/total number of cells: 3/50
Acute toxicity on mice
  LD50 at 24 h: 500 to 1000 mg/kg

## O=C(Nc1ccnc(N2CCC(c3ccccc3)CC2)n1)c1ccccc1 [Compound 160]
[1]; 0.1 mM
  Number of cells having neurites with a length at least two times the diameter of each cell/total number of cells: 11.3 ± 6.3%
[1]; 0.3 mM
  Number of cells having neurites with a length at least two times the diameter of each cell/total number of cells: 6.7 ± 4.3%
[2]; 24 hours, 0.5 mM
  Number of cells in which neurites appeared/total number of cells: 10/53
[2]; 48 hours, 0.5 mM
  Number of cells in which neurites appeared/total number of cells: 2/50
Acute toxicity on mice
  LD50 at 24 h: > 1000 mg/kg

## CC(=O)N(C)c1ccnc(N2CCCc3ccccc32)n1 [Compound 320]
[1]; 0.1 mM
  Number of cells having neurites with a length at least two times the diameter of each cell/total number of cells: 7.2 ± 0.2%
[1]; 0.3 mM
  Number of cells having neurites with a length at least two times the diameter of each cell/total number of cells: 8.5 ± 1.1%
[2]; 24 hours, 0.1 mM
  Number of cells in which neurites appeared/total number of cells: 8/50
[2]; 48 hours, 0.1 mM
  Number of cells in which neurites appeared/total number of cells: 6/50
Acute toxicity on mice
  LD50 at 24 h: > 1000 mg/kg

## CN(C(=O)c1ccccc1)c1ccnc(N2CCCCC2)n1 [Compound 136]
[1]; 0.1 mM
  Number of cells having neurites with a length at least two times the diameter of each cell/total number of cells: 11.6 ± 6.3%
[1]; 0.3 mM
  Number of cells having neurites with a length at least two times the diameter of each cell/total number of cells: 12.1 ± 2.9%
[2]; 24 hours, 0.1 mM
  Number of cells in which neurites appeared/total number of cells: 9/50
[2]; 24 hours, 0.4 mM
  Number of cells in which neurites appeared/total number of cells: 42/50
[2]; 48 hours, 0.4 mM
  Number of cells in which neurites appeared/total number of cells: 15/50
Acute toxicity on mice
  LD50 at 24 h: > 1000 mg/kg

## CN(C(=O)C1CCCCC1)c1ccnc(N2CCC(c3ccccc3)CC2)n1 [Compound 232]
[1]; 0.03 mM
  Number of cells having neurites with a length at least two times the diameter of each cell/total number of cells: 3.9 ± 1.8%
[1]; 0.1 mM
  Number of cells having neurites with a length at least two times the diameter of each cell/total number of cells: 18.7 ± 5.2%
[2]; 24 hours, 0.025 mM
  Number of cells in which neurites appeared/total number of cells: 2/50
[2]; 48 hours, 0.01 mM
  Number of cells in which neurites appeared/total number of cells: 2/49
Acute toxicity on mice
  LD50 at 24 h: > 1000 mg/kg

## COc1ccc(C(=O)N(C)c2ccnc(N3CCC(c4ccccc4)CC3)n2)cc1 [Compound 272]
[1]; 0.03 mM
  Number of cells having neurites with a length at least two times the diameter of each cell/total number of cells: 4.8 ± 1.3%
[1]; 0.1 mM
  Number of cells having neurites with a length at least two times the diameter of each cell/total number of cells: 30.9 ± 2.8%
[1]; 0.3 mM
  Number of cells having neurites with a length at least two times the diameter of each cell/total number of cells: 15.9 ± 0.5%
[1]; 1 mM
  Number of cells having neurites with a length at least two times the diameter of each cell/total number of cells: 17.0 ± 4.3%
[2]; 24 hours, 0.1 mM
  Number of cells in which neurites appeared/total number of cells: 33/50
[2]; 24 hours, 0.2 mM
  Number of cells in which neurites appeared/total number of cells: 24/50
[2]; 48 hours, 0.1 mM
  Number of cells in which neurites appeared/total number of cells: 17/50
Acute toxicity on mice
  LD50 at 24 h: > 1000 mg/kg

## CN1C(=O)Cc2cnc(N3CCN(C(c4ccccc4)c4ccccn4)CC3)nc21 (centres unmarked) [Compound 3192]
[1]; 0.1 mM
  Number of cells having neurites with a length at least two times the diameter of each cell/total number of cells: 9.7 ± 1.1%
[1]; 0.3 mM
  Number of cells having neurites with a length at least two times the diameter of each cell/total number of cells: 3.7 ± 3.2%
[2]; 24 hours, 0.02 mM
  Number of cells in which neurites appeared/total number of cells: 6/50
[2]; 48 hours, 0.02 mM
  Number of cells in which neurites appeared/total number of cells: 4/50
Acute toxicity on mice
  LD50 at 24 h: 500 to 1000 mg/kg

## CN(C(=O)c1ccccc1)c1ccnc(N2CCC(C(C)(C)C)CC2)n1 [Compound 152]
[1]; 0.03 mM
  Number of cells having neurites with a length at least two times the diameter of each cell/total number of cells: 6.2 ± 2.3%
[1]; 0.1 mM
  Number of cells having neurites with a length at least two times the diameter of each cell/total number of cells: 33.8 ± 4.7%
[2]; 24 hours, 0.05 mM
  Number of cells in which neurites appeared/total number of cells: 3/50
[2]; 48 hours, 0.025 mM
  Number of cells in which neurites appeared/total number of cells: 2/50
Acute toxicity on mice
  LD50 at 24 h: > 1000 mg/kg

## CN(C(=O)c1ccccc1)c1ccnc(N2CCCC2)n1 [Compound 120]
[1]; 0.1 mM
  Number of cells having neurites with a length at least two times the diameter of each cell/total number of cells: 4.9 ± 1.0%
[1]; 0.3 mM
  Number of cells having neurites with a length at least two times the diameter of each cell/total number of cells: 7.5 ± 4.1%
[2]; 24 hours, 0.5 mM
  Number of cells in which neurites appeared/total number of cells: 23/50
[2]; 48 hours, 0.5 mM
  Number of cells in which neurites appeared/total number of cells: 4/50
Acute toxicity on mice
  LD50 at 24 h: > 1000 mg/kg

## CCCN(C(=O)c1ccccc1)c1ccnc(N2CCC(c3ccccc3)CC2)n1 [Compound 184]
[1]; 0.1 mM
  Number of cells having neurites with a length at least two times the diameter of each cell/total number of cells: 18.8 ± 4.7%
[1]; 0.3 mM
  Number of cells having neurites with a length at least two times the diameter of each cell/total number of cells: 16.0 ± 2.4%
[2]; 24 hours, 0.02 mM
  Number of cells in which neurites appeared/total number of cells: 8/50
[2]; 24 hours, 0.1 mM
  Number of cells in which neurites appeared/total number of cells: 5/48
[2]; 48 hours, 0.02 mM
  Number of cells in which neurites appeared/total number of cells: 3/50
Acute toxicity on mice
  LD50 at 24 h: > 1000 mg/kg

## O=C(c1ccccc1)N(Cc1ccccc1)c1nccc(N2CCC(c3ccccc3)CC2)n1 [Compound 660]
[1]; 0.03 mM
  Number of cells having neurites with a length at least two times the diameter of each cell/total number of cells: 13.5 ± 1.3%
[1]; 0.1 mM
  Number of cells having neurites with a length at least two times the diameter of each cell/total number of cells: 9.1 ± 3.7%
[2]; 24 hours, 0.1 mM
  Number of cells in which neurites appeared/total number of cells: 5/50
[2]; 48 hours, 0.1 mM
  Number of cells in which neurites appeared/total number of cells: 4/50
Acute toxicity on mice
  LD50 at 24 h: 500 to 1000 mg/kg
